Converted amounts (≈) assume the structure as drawn.
Tests used:
[1] = test system: Botrytis cinerea (ATCC #204446); assay: in vitro inhibition assay for volatile antimicrobial compounds (headspace, PDA agar); assay type: cell-based; conditions: for MIC / EC50: Botrytis cinerea, ATCC204446, 72 h; for EC50: growth relative to control
Description: (§1) 12-well (6.5 ml volume per well) microtiter plates are used for the in vitro inhibition assay for volatile antimicrobial compounds. A 3-ml volume of full-strength Potato Dextrose Agar (PDA) is added to each well. After cooling, 1 μL of 1×10^5 spores per ml Botrytis cinerea (ATCC #204446) spore suspension is spot pipetted to the agar in the center of the well. Whatman #1 filter disks (1.5 cm; Cat. No. 1001-0155) are placed on the underside of a polyethylene PCR plate sealing film. For determination of the minimum inhibitory concentration (MIC), test compounds are diluted in acetone, in duplicate, and 50 μli of the compound solution is added to disks at concentrations that can vary from 0.001 mg/l to 1142.9 mg/l. The acetone is permitted to evaporate for 5 minutes. The headspace around the Botrytis cinerea inoculum is then sealed inside the well by the film with the adhering disk containing the antimicrobial, anti-decay, anti-spoilage, or pathogen control agent. Plates are inverted to prevent any possibility of the chemical from flaking from the disk and falling onto the inoculated agar.

Penicillium expansum = assay: as above; assay type: cell-based; conditions: volatile headspace exposure
Description: [The procedure below names another organism; the source lists this organism under the same test.] as §1

Alternaria alternata = assay: as above; assay type: cell-based; conditions: volatile headspace exposure
Description: [The procedure below names another organism; the source lists this organism under the same test.] as §1

[2] = test system: Botrytis cinerea (ATCC #204446); assay: Grape in vivo analysis, volatile bioassay on inoculated green table grape; design: species or system Botrytis cinerea on green table grape; conditions: for antimicrobial activity against Botrytis cinerea in grape in vivo analysis: stem wound inoculated, 3 days treatment at 21° C. plus 3 days evaluation; for phytotoxicity in grape in vivo analysis: symptoms of phytotoxicity evaluated daily
Description: In order to assess the in vivo activity of volatile antimicrobial compounds, a volatile bioassay is developed using green table grape. Fruit are removed from the rachis, and 16 to 20 fruit are placed inside a 1 dry pint clamshell (Produce Packaging; Product #03231004KZ) with the stem wound facing upwards. The grapes are inoculated by pipetting 20 μL of 1×10^6 spore per ml Botrytis cinerea (ATCC #204446) into the stem wound. The clamshell is placed inside a 2.55 L plastic container (Snapware; Model #1098421). A Whatman #1 filter paper (4.25 cm; Cat. No. 1001-042) is placed on a watchglass, which is then placed on top of the closed clamshell lid. For determination of the MIC, test compounds are diluted in acetone, and 400 μl of the solution is added to disks, in duplicate, in a dose dependent manner (for example 0.4 to 50 mg/liter). The acetone is permitted to evaporate for 5 minutes. The plastic containers are then closed and placed for 3 days at 21° C. Clamshells are then removed from the treatment plastic container and placed into separate larger secondary containers for a further 3 days of evaluation at 21° C. During these 3 days, fruit are evaluated daily for incidence and severity of disease and symptoms of phytotoxicity.

[3] = test system: Botrytis cinerea (ATCC #204446); assay: Strawberry in vivo analysis, volatile bioassay on wound-inoculated strawberry; design: species or system Botrytis cinerea on strawberry; conditions: for phytotoxicity in strawberry in vivo analysis: symptoms of phytotoxicity evaluated daily; for antimicrobial activity against Botrytis cinerea in strawberry in vivo analysis: wound-inoculated, 3 days treatment at 21° C. plus 3 days evaluation
Description: In order to assess the in vivo activity of volatile antimicrobial compounds, a volatile bioassay is developed using strawberry. Fruit (6 to 8) are placed inside a 1 lb clamshell (Packaging Direct Inc.; Product #4341699) with the calyx facing downward. The strawberry fruit are wound-inoculated by pipetting 20 μL of 1×10^6 spore per ml Botrytis cinerea (ATCC #204446) into a wound approximately 5 mm deep and 2.6 mm in width. The clamshell is placed inside a 2.55 L plastic container (Snapware; Model #1098421). A Whatman #1 filter paper (4.25 cm; Cat. No. 1001-042) is placed on a watchglass, which is then placed on top of the closed clamshell lid. For determination of the MIC, test compounds are diluted in acetone, and 400 μl of the solution is added to disks, in duplicate, in a dose dependent manner (for example 0.4 to 50 mg/liter). The acetone is permitted to evaporate for 5 minutes. The plastic containers are then closed and placed for 3 days at 21° C. Clamshells are then removed from the treatment plastic container and placed into separate larger secondary containers for a further 3 days of evaluation at 21° C. During these 3 days, fruit are evaluated daily for incidence and severity of disease and symptoms of phytotoxicity.

[4] = test system: Escherichia coli (ATCC #25922); assay: in vitro inhibition assay for volatile antimicrobial compounds against bacteria (LB agar); assay type: cell-based; conditions: volatile headspace exposure, 2 days at 23° C.
Description: 12-well (6.5 ml volume per well) microtiter plates are used for the in vitro inhibition assay for volatile antimicrobial compounds. A 3-ml volume of full-strength L^B Agar is added to each well. After cooling, 15 μL of Escherichia coli (ATCC #25922) adjusted to an optical density of 0.02 to 0.035, and further diluted 1/10 is pipetted to the center of the agar. The plate is tilted to distribute bacteria uniformly. Whatman #1 filter disks (1.5 cm; Cat. No. 1001-0155) are placed on the underside of a polyethylene PCR plate sealing film. […] The acetone is permitted to evaporate for 5 minutes. The headspace around the Escherichia coli inoculum is then sealed inside the well by the film with the adhering disk containing the antimicrobial, anti-decay, anti-spoilage, or pathogen control agent. Plates are inverted, placed over the treated disks and sealed to prevent any of the chemical from flaking from the disk and falling onto the inoculated agar. After 2 days of incubation at 23° C., cultures were evaluated for colony growth relative to control.

Monilinia fructicola = assay: in vitro inhibition assay for volatile antimicrobial compounds (headspace, PDA agar); assay type: cell-based; conditions: volatile headspace exposure
Description: [The procedure below names another organism; the source lists this organism under the same test.] as §1

[5] = volatile headspace exposure, 3 days at 23° C.

SMILES	MIC [1, 5] [µg/mL]	EC50 [1, 5] [µg/mL]	EC50 (Penicillium expansum) [µg/mL]	MIC (Penicillium expansum) [µg/mL]	also measured
Fc1ccc2c(c1)COB2OCCNCCNCCOB1OCc2cc(F)ccc21 [Compound 10, N^1,N^2-bis(2-((5-fluorobenzo[c][1,2]oxaborol-1(3H)-yl)oxy)ethyl)ethane-1,2-diamine]	0.6 (≈ 1.44 µM)	0.2 (≈ 0.481 µM)	0.9 (≈ 2.16 µM)	8.9 (≈ 21.4 µM)	–
CC(C)(OB1OCc2cc(F)ccc21)C(C)(C)OB1OCc2cc(F)ccc21 [Compound 9, 1,1′-((2,3-dimethylbutane-2,3-diyl)bis(oxy))bis(5-fluoro-1,3-dihydrobenzo[c][1,2]oxaborole)]	1.1 (≈ 2.85 µM)	0.3 (≈ 0.777 µM)	0.8 (≈ 2.07 µM)	4.5 (≈ 11.7 µM)	EC50 (Alternaria alternata): 0.3 µg/mL (≈ 0.777 µM); MIC (Alternaria alternata): 2.2 µg/mL (≈ 5.7 µM); antimicrobial activity against Botrytis cinerea in grape in vivo analysis [2]: good antimicrobial activity; phytotoxicity in grape in vivo analysis [2]: no phytotoxicity; phytotoxicity in strawberry in vivo analysis [3]: no phytotoxicity; antimicrobial activity against Botrytis cinerea in strawberry in vivo analysis [3]: good antimicrobial activity; antimicrobial activity against Escherichia coli (colony growth relative to control) [4]: good antimicrobial activity
Fc1ccc2c(c1)COB2OCCCOB1OCc2cc(F)ccc21 [Compound 13, 1,3-bis((5-fluorobenzo[c][1,2]oxaborol-1(3H)-yl)oxy)propane]	0.3 (≈ 0.872 µM)	0.1 (≈ 0.291 µM)	0.8 (≈ 2.33 µM)	8.9 (≈ 25.9 µM)	antimicrobial activity against Botrytis cinerea in grape in vivo analysis [2]: good antimicrobial activity; phytotoxicity in grape in vivo analysis [2]: no phytotoxicity; phytotoxicity in strawberry in vivo analysis [3]: no phytotoxicity; antimicrobial activity against Botrytis cinerea in strawberry in vivo analysis [3]: good antimicrobial activity; antimicrobial activity against Escherichia coli (colony growth relative to control) [4]: good antimicrobial activity
c1ccc2c(c1)COB2NCCNB1OCc2ccccc21 [Compound 5, N^1,N^2-bis(benzo[c][1,2]oxaborol-1(3H)-yl)ethane-1,2-diamine]	–	–	3.3 (≈ 11.3 µM)	17.9 (≈ 61.3 µM)	–
OC(COB1OCc2cc(F)ccc21)COB1OCc2cc(F)ccc21 [Compound 12, 1,3-bis((5-fluorobenzo[c][1,2]oxaborol-1(3H)-yl)oxy)propan-2-ol]	0.6 (≈ 1.67 µM)	0.2 (≈ 0.556 µM)	1.1 (≈ 3.06 µM)	8.9 (≈ 24.7 µM)	–
CC(C)(COB1OCc2cc(F)ccc21)COB1OCc2cc(F)ccc21 [Compound 8, 1,1′-((2,2-dimethylpropane-1,3-diyl)bis(oxy))bis(5-fluoro-1,3-dihydrobenzo[c][1,2]oxaborole)]	0.6 (≈ 1.61 µM)	0.3 (≈ 0.806 µM)	0.8 (≈ 2.15 µM)	2.2 (≈ 5.91 µM)	–
CC(C)(OB1OCc2ccccc21)C(C)(C)OB1OCc2ccccc21 [Compound 3, 1,1′-((2,3-dimethylbutane-2,3-diyl)bis(oxy))bis(1,3-dihydrobenzo[c][1,2]oxaborole)]	8.9 (≈ 25.4 µM)	2.1 (≈ 6 µM)	11.1 (≈ 31.7 µM)	71.4 (≈ 204 µM)	–
c1ccc2c(c1)COB2OCCNCCNCCOB1OCc2ccccc21 [Compound 4, N^1,N^2-bis(2-(benzo[c][1,2]oxaborol-1(3H)-yloxy)ethyl)ethane-1,2-diamine]	1.1 (≈ 2.89 µM)	0.4 (≈ 1.05 µM)	2 (≈ 5.26 µM)	8.9 (≈ 23.4 µM)	–
c1ccc2c(c1)COB2OB1OCc2ccccc21 [Compound 6, 1,1′-oxybis(1,3-dihydrobenzo[c][1,2]oxaborole)]	2.2 (≈ 8.8 µM)	0.8 (≈ 3.2 µM)	3.1 (≈ 12.4 µM)	17.9 (≈ 71.6 µM)	–
Fc1ccc2c(c1)COB2OCCOB1OCc2cc(F)ccc21 [Compound 7, 1,2-bis((5-fluorobenzo[c][1,2]oxaborol-1(3H)-yl)oxy)ethane]	0.6 (≈ 1.82 µM)	0.2 (≈ 0.606 µM)	< 0.6	8.9 (≈ 27 µM)	EC50 (Alternaria alternata): 0.3 µg/mL (≈ 0.909 µM); MIC (Alternaria alternata): 2.2 µg/mL (≈ 6.67 µM); antimicrobial activity against Botrytis cinerea (in words) ([1]; in vitro analysis, b318 says Botrytis cinerea and/or other pathogens): excellent activity; MIC (Monilinia fructicola): 2.2 µg/mL (≈ 6.67 µM); antimicrobial activity against Botrytis cinerea in grape in vivo analysis [2]: good antimicrobial activity; phytotoxicity in grape in vivo analysis [2]: no phytotoxicity; phytotoxicity in strawberry in vivo analysis [3]: no phytotoxicity; antimicrobial activity against Botrytis cinerea in strawberry in vivo analysis [3]: good antimicrobial activity; antimicrobial activity against Escherichia coli (colony growth relative to control) [4]: good antimicrobial activity
Clc1ccc2c(c1)COB2OCCOB1OCc2cc(Cl)ccc21 [Compound 19, 1,2-bis((5-chlorobenzo[c][1,2]oxaborol-1(3H)-yl)oxy)ethane]	–	–	–	–	MIC Botrytis cinerea [1, 5]: 0 mg/L
CC(COB1OCc2cc(F)ccc21)OB1OCc2cc(F)ccc21 (stereo not shown) [Compound 11, 1,1′-(propane-1,2-diylbis(oxy))bis(5-fluoro-1,3-dihydrobenzo[c][1,2]oxaborole)]	0.6 (≈ 1.74 µM)	0.2 (≈ 0.582 µM)	< 0.6	8.9 (≈ 25.9 µM)	EC50 (Alternaria alternata): 0.31 µg/mL (≈ 0.901 µM); MIC (Alternaria alternata): 1.1 µg/mL (≈ 3.2 µM); EC50 (Monilinia fructicola): 0.2 µg/mL (≈ 0.582 µM)

The next lines start with results.

MIC [1, 5] [µg/mL]	EC50 [1, 5] [µg/mL]	EC50 (Penicillium expansum) [µg/mL]	MIC (Penicillium expansum) [µg/mL]	SMILES	also measured
1.1 (≈ 3.22 µM)	0.3 (≈ 0.877 µM)	1 (≈ 2.92 µM)	8.9 (≈ 26 µM)	Fc1ccc2c(c1)COB2NCCCNB1OCc2cc(F)ccc21 [Compound 16, N^1,N^3-bis(5-fluorobenzo[c][1,2]oxaborol-1(3H)-yl)propane-1,3-diamine]	–
1.1 (≈ 3.35 µM)	0.4 (≈ 1.22 µM)	1.8 (≈ 5.49 µM)	17.9 (≈ 54.6 µM)	Fc1ccc2c(c1)COB2NCCNB1OCc2cc(F)ccc21 [Compound 17, N^1,N^2-bis(5-fluorobenzo[c][1,2]oxaborol-1(3H)-yl)ethane-1,2-diamine]	–
9 (≈ 24.6 µM)	3 (≈ 8.2 µM)	> 35.7	> 35.7	Fc1cc2c(cc1F)B(OCCOB1OCc3cc(F)c(F)cc31)OC2 [Compound 18, 1,2-bis((5,6-difluorobenzo[c][1,2]oxaborol-1(3H)-yl)oxy)ethane]	–
1.1 (≈ 2.71 µM)	0.4 (≈ 0.985 µM)	1.7 (≈ 4.19 µM)	17.9 (≈ 44.1 µM)	Fc1ccc2c(c1)COB2OCc1ccc(COB2OCc3cc(F)ccc32)cc1 [Compound 14, 1,4-bis(((5-fluorobenzo[c][1,2]oxaborol-1(3H)-yl)oxy)methyl)benzene]	–
2.2 (≈ 5.42 µM)	0.7 (≈ 1.72 µM)	2.5 (≈ 6.16 µM)	17.9 (≈ 44.1 µM)	Fc1ccc2c(c1)COB2OCc1cccc(COB2OCc3cc(F)ccc32)c1 [Compound 15, 1,3-bis(((5-fluorobenzo[c][1,2]oxaborol-1(3H)-yl)oxy)methyl)benzene]	–
0.3 (≈ 1.05 µM)	0.1 (≈ 0.35 µM)	0.5 (≈ 1.75 µM)	4.5 (≈ 15.7 µM)	Fc1ccc2c(c1)COB2OB1OCc2cc(F)ccc21 [Compound 20, 1,1′-oxybis(5-fluoro-1,3-dihydrobenzo[c][1,2]oxaborole)]	–
